Data set [1] in a line: Cytotoxicity against mouse BV-2 cells assessed as cell viability at 20 uM. It counts as toxicity, cell-based. The conditions noted are these: read-out: Activity.
Data set [2] concerns BV-2. The experiment in a line: Antineuroinflammatory activity in mouse BV-2 cells assessed as inhibition of LPS-induced NO production at 10 uM by Griess assay. Type of data set: functional. More on the design: scale not given: the % may be the effect or the level left.
Data set [3] is described as follows: Neurotoxicity against rat PC-12 cells at 20 uM incubated for 24 hrs by MTT assay. The following applies: pc-12, 24 h. It counts as toxicity, cell-based.
The test system of data set [4] is BV-2. The experiment in a line: Antineuroinflammatory activity in mouse BV-2 cells assessed as inhibition of LPS-induced NO production by Griess assay. It counts as functional, cell-based.
The next data set concerns PC-12. Description: Neuroprotective activity against H2O2-induced rat PC-12 cells injury assessed as cell viability at 10 uM preincubated for 4 hrs followed by H2O2 stimulation and measured after 24 hrs by MTT assay (reference value: 56%). It counts as functional. The following applies: time 28 hrs, read-out: Activity.

`C[C@@H](NC(=O)C1CCCCC1)C(=O)OC1CC=CC1`: the viability at 20 µM in data set [1] was 91.5%. Besides, the Activity in the data set on BV-2 [2] stood at 17.7%.

As to `C[C@@H](NC(=O)C1CCCCC1)C(=O)O`, in data set [1], the viability at 20 µM is 101%. Moreover, the Activity in the data set on BV-2 [2] is 6.72%.

In the case of `C[C@@H](NC(=O)C1CCCCC1)C(=O)OC1CCCCCC1`, in data set [1], the viability at 20 µM was 96.1%. For the same compound, in the data set on BV-2 [2], the Activity is on record as 18%.

Consider `C[C@@H](NC(=O)C1CCCCC1)C(=O)OC1C=CCCC1` (some centres undefined), for which the viability at 20 µM in data set [1] was 85.4%. Moreover, the Activity in the data set with BV-2 [2] is recorded as 14.5%.

On to `C[C@@H](NC(=O)C1CCCCC1)C(=O)OC1CCC1`, for which the viability at 20 µM in data set [1] amounted to 106%. The Activity in the data set with BV-2 [2] was found to be 8%.

As for `C[C@@H](NC(=O)C1CCCCC1)C(=O)OC1CCCC1`, the viability at 20 µM in data set [1] is 86.2%. The Activity is reported as 36% in the data set with BV-2 [2] and “Non-Toxic” in data set [3].

For the compound `C[C@H](NC(=O)C1CCCCC1)C(=O)OCc1ccccc1`, the viability at 20 µM in data set [1] was 90%. For the same compound, the results for the Activity (in the data set with BV-2 [2]; in data set [3]) were 31.8% and “Non-Toxic”, respectively. The EC50 with BV-2 [4] was determined as 23.6 µM.

Regarding `C[C@H](NC(=O)C1CCCCC1)C(=O)OCC1CCCCC1`, the viability at 20 µM in data set [1] came out at 92.7%. For the same compound, the values for the Activity (in the data set with BV-2 [2]; in data set [3]) were 52.9% and “Non-Toxic”, respectively. Besides, in the data set on PC-12, the viability at 10 µM worked out at 76%. The EC50 in the data set with BV-2 [4] came to 8.9 µM.

Take `C[C@@H](NC(=O)C1CCCCC1)C(=O)OC1CCCCCCCCCCCCCC1`: the viability at 20 µM in data set [1] is 109%. In addition, the Activity in the data set on BV-2 [2] is listed as 12.5%.

For the compound `C[C@@H](NC(=O)C1CCCCC1)C(=O)OC1CC1`, in data set [1], the viability at 20 µM came out at 97.6%. Also, in the data set with BV-2 [2], the Activity is 9.7%.

`C[C@H](NC(=O)C1CCCCC1)C(=O)OC1CCCCC1`: the viability at 20 µM in data set [1] was found to be 91.5%. Also, the Activity with BV-2 [2] is listed as 41.8%; in data set [3], “Non-Toxic”. Moreover, the viability at 10 µM in the data set with PC-12 worked out at 67%. Besides, the EC50 in the data set with BV-2 [4] is 17.3 µM.

With `C[C@@H](NC(=O)C1CCCCC1)C(=O)OCc1ccccc1`, the viability at 20 µM in data set [1] came out at 93%. For the same compound, the Activity in the data set on BV-2 [2] is 47.2%; in data set [3] it was “Non-Toxic”. The viability at 10 µM with PC-12 came to 80%. Further, the EC50 in the data set with BV-2 [4] is 12.4 µM.

Regarding `C[C@@H](NC(=O)C1CCCCC1)C(=O)OC1CC/C=C\CCC1` (some centres undefined), the viability at 20 µM in data set [1] turned out to be 112%. Moreover, the Activity in the data set with BV-2 [2] came out at 28.4%.

On to `C[C@@H](NC(=O)C1CCCCC1)C(=O)OC1CCCCCCCCCCC1`, for which the viability at 20 µM in data set [1] is 105%. Moreover, the Activity in the data set with BV-2 [2] is 19%.

As to `CO[C@H]1/C=C/C=C/C=C/C[C@H](O)[C@H](C)[C@@H](O)/C(C)=C\CCc2cc(O)cc(c2)NC(=O)C1`, the EC50 in the data set on BV-2 [4] amounted to 13 µM.

For the compound `C[C@@H](NC(=O)C1CCCCC1)C(=O)OC1CCCCCCC1`, the viability at 20 µM in data set [1] was 84%. In addition, in the data set on BV-2 [2], the Activity is 8.3%.

Take `C[C@@H](NC(=O)C1CCCCC1)C(=O)OCC1CCCCC1`: in data set [1], the viability at 20 µM turned out to be 98.3%. Moreover, the Activity was 31.1% in the data set on BV-2 [2] and “Non-Toxic” in data set [3]. In the data set with BV-2 [4], the concentration giving a half-maximal response (EC50) is 24.1 µM.

Consider `C[C@@H](NC(=O)C1CCCCC1)C(=O)OC1CCCCC1`, for which, in data set [1], the viability at 20 µM was 97.5%. For the same compound, the Activity in the data set with BV-2 [2] was 34.6%; in data set [3], “Non-Toxic”. For the same compound, in the data set with BV-2 [4], the EC50 came out at 22 µM.

Turning to `O=c1c(O)c(-c2ccc(O)c(O)c2)oc2cc(O)cc(O)c12` [QUERCETIN], the viability at 20 µM in data set [1] was 98.7%. Further, the Activity with BV-2 [2] was found to be 63.2%.

Consider `CO[C@H]1/C=C/C=C/C=C/C[C@H](OC(=O)[C@@H](C)NC(=O)C2CCCCC2)[C@H](C)[C@@H](O)/C(C)=C\CCc2cc(O)cc(c2)NC(=O)C1` [TRIENOMYCIN A], for which the EC50 in the data set with BV-2 [4] came out at 0.02 µM.
